Reference: ChEMBL document CHEMBL2390867, “Design, synthesis and evaluation of novel tacrine-coumarin hybrids as multifunctional cholinesterase inhibitors against Alzheimer's disease” (Eur J Med Chem, 2013)
Activity calls are given as the source filed them. The rule behind the calls is not given here.

Tests used:
Acetylcholinesterase [1] = target: T1, Acetylcholinesterase (Electrophorus electricus, UniProt O42275)
Description: Inhibition of electric eel AChE using acetylthiocholine iodide as substrate preincubated for 6 mins prior to substrate addition measured at 60 to 180 seconds by Ellman's method

Cholinesterase = Cholinesterase (Equus caballus, UniProt P81908)
Description: Inhibition of equine serum BChE using S-butyrylthiocholine iodide as substrate preincubated for 6 mins prior to substrate addition measured at 60 to 180 seconds by Ellman's method

[2] = target: Amyloid-beta precursor protein (Homo sapiens) (UniProt P05067); settings: at 20 µM
Chain of Amyloid-beta precursor protein (Homo sapiens) (P05067 whole entry): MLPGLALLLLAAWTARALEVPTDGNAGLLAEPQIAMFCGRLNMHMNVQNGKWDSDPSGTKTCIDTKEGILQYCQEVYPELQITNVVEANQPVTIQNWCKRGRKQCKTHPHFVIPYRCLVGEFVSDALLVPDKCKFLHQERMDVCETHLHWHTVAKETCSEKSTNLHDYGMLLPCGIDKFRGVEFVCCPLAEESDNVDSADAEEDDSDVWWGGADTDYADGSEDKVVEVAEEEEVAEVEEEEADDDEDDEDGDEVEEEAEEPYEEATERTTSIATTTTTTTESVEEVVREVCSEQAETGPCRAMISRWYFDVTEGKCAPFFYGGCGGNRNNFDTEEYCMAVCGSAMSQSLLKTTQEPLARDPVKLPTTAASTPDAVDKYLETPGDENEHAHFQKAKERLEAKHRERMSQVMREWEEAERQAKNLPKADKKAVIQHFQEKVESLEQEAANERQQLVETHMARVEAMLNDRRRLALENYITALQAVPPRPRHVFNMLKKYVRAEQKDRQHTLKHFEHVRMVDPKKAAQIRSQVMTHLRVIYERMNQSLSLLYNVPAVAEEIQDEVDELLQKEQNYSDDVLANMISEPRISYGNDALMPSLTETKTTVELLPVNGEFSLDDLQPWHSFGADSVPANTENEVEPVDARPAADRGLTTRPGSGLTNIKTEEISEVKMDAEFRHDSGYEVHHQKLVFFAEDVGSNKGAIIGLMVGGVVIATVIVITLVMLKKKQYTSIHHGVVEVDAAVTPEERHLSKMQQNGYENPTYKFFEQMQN

[3] = Neurotoxicity in human SH-SY5Y cells at 10 uM after 24 hrs by MTT assay relative to control; type: toxicity, cell-based
Acetylcholinesterase [4] = target: T1, Acetylcholinesterase; assay: Competitive inhibition of electric eel AChE using acetylthiocholine as substrate by Lineweaver-Burk plot analysis
[5] = Neurotoxicity in human SH-SY5Y cells at 5 uM after 24 hrs by MTT assay relative to control; type: toxicity, cell-based; settings: read-out: Activity
[6] = Neurotoxicity in human SH-SY5Y cells at 1 uM after 24 hrs by MTT assay relative to control; type: toxicity, cell-based
[7] = Metal chelating activity assessed as compound-Cu2+ complex formation at 25 uM by UV-vis spectrophotometric analysis; type: functional
[8] = Neurotoxicity in human SH-SY5Y cells at 25 uM after 24 hrs by MTT assay relative to control; type: toxicity, cell-based
[9] = Neurotoxicity in human SH-SY5Y cells at 50 uM after 24 hrs by MTT assay relative to control; type: toxicity, cell-based
[10] = Metal chelating activity assessed as compound-Fe2+ complex formation at 25 uM by UV-vis spectrophotometric analysis; type: functional

T1 sequence (O42275 whole entry): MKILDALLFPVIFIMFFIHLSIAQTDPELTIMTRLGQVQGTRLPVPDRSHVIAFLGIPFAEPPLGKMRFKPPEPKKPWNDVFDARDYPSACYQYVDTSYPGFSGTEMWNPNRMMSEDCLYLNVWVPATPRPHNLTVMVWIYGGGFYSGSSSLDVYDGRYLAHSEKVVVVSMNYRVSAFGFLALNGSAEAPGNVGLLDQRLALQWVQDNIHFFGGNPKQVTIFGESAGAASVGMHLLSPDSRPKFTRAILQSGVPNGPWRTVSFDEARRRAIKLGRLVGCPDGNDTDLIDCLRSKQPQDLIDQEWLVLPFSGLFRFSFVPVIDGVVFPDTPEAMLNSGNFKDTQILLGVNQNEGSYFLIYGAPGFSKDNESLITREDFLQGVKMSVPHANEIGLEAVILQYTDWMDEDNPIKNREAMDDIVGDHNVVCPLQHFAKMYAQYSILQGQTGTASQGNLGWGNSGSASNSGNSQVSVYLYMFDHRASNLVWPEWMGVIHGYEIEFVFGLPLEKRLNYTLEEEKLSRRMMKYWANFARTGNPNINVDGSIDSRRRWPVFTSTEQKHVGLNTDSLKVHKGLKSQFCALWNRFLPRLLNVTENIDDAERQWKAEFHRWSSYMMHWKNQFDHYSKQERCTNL
Chain of Cholinesterase (P81908 whole entry): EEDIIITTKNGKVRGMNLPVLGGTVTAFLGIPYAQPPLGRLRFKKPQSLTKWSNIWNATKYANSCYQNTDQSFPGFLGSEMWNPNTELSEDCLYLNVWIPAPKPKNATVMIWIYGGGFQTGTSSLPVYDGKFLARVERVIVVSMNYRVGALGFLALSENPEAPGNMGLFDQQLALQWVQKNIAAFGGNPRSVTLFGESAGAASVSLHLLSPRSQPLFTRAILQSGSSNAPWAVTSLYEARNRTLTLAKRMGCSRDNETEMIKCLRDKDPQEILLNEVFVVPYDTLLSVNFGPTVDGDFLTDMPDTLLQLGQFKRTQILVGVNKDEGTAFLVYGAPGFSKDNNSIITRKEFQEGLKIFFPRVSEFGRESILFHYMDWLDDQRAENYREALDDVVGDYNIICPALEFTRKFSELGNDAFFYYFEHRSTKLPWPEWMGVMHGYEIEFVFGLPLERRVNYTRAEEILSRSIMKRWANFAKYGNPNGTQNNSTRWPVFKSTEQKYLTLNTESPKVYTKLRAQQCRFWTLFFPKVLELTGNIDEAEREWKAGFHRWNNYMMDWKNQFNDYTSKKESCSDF

SMILES | IC50 (Acetylcholinesterase [1]) [nM] | IC50 (Cholinesterase) [nM] | inhibition [2] [%] | further results
O=C(CN1CCN(CCOc2ccc3ccc(=O)oc3c2)CC1)Nc1c2c(nc3ccccc13)CCCC2 | 150 | 493 | 59 | –
COc1cc(=O)oc2cc(OCCCN3CCN(CC(=O)Nc4c5c(nc6ccccc46)CCCC5)CC3)ccc12 | 166 | 1830 | 34.9 | –
Cc1cc(=O)oc2cc(OCCN3CCN(CC(=O)Nc4c5c(nc6ccccc46)CCCC5)CC3)ccc12 | 92 | 234 | – | Activity [3]: 104.3%; Ki (Acetylcholinesterase [4]): 81 nM; viability at 24 h, 5 µM [5]: 94.7%; Activity [6]: 96.6%; Activity [7]: Active; Activity [8]: 93.6%; Activity [9]: 91.5%; Activity [10]: Active
COc1cc(=O)oc2cc(OCCCCCCN3CCN(CC(=O)Nc4c5c(nc6ccccc46)CCCC5)CC3)ccc12 | 993 | 1780 | 31.9 | –
O=C(CN1CCNCC1)Nc1c2c(nc3ccccc13)CCCC2 | 145000 | 22000 | 30.3 | –
O=C(CN1CCN(CCOc2ccc3c(-c4ccccc4)cc(=O)oc3c2)CC1)Nc1c2c(nc3ccccc13)CCCC2 | 373 | 1510 | 27.2 | –
COc1cc(=O)oc2cc(OCCCCN3CCN(CC(=O)Nc4c5c(nc6ccccc46)CCCC5)CC3)ccc12 | 237 | 3630 | 22.1 | –
COc1cc(=O)oc2cc(OCCN3CCN(CC(=O)Nc4c5c(nc6ccccc46)CCCC5)CC3)ccc12 | 150 | 5140 | 21.6 | –
Cc1cc(=O)oc2cc(OCCCCCCN3CCN(CC(=O)Nc4c5c(nc6ccccc46)CCCC5)CC3)ccc12 | 398 | 99 | 57.6 | –
O=C(CN1CCN(CCCOc2ccc3c(-c4ccccc4)cc(=O)oc3c2)CC1)Nc1c2c(nc3ccccc13)CCCC2 | 887 | 3160 | 28.2 | –
O=C(CN1CCN(CCCCOc2ccc3ccc(=O)oc3c2)CC1)Nc1c2c(nc3ccccc13)CCCC2 | 169 | 309 | 57 | –
COc1cc(/C=C/C(=O)CC(=O)/C=C/c2ccc(O)c(OC)c2)ccc1O | – | – | 42.4 | –
O=C(CN1CCN(CCCOc2ccc3ccc(=O)oc3c2)CC1)Nc1c2c(nc3ccccc13)CCCC2 | 133 | 440 | 55.1 | –
O=c1ccc2ccc(O)cc2o1 | – | – | 30.5 | –
COc1cc(=O)oc2cc(O)ccc12 | 208000 | > 500000 | 22.4 | –
O=C(CN1CCN(CCCCCCOc2ccc3c(-c4ccccc4)cc(=O)oc3c2)CC1)Nc1c2c(nc3ccccc13)CCCC2 | 2360 | 4510 | 27.5 | –
Cc1cc(=O)oc2cc(O)ccc12 [HYMECROMONE] | 167000 | > 500000 | 21.5 | –
O=C(CN1CCN(CCCCOc2ccc3c(-c4ccccc4)cc(=O)oc3c2)CC1)Nc1c2c(nc3ccccc13)CCCC2 | 1110 | 1820 | 28.6 | –
Cc1cc(=O)oc2cc(OCCCN3CCN(CC(=O)Nc4c5c(nc6ccccc46)CCCC5)CC3)ccc12 | 130 | 628 | 67.5 | –
O=C(CN1CCN(CCCCCOc2ccc3ccc(=O)oc3c2)CC1)Nc1c2c(nc3ccccc13)CCCC2 | 310 | 215 | 52.7 | –
COc1cc(=O)oc2cc(OCCCCCN3CCN(CC(=O)Nc4c5c(nc6ccccc46)CCCC5)CC3)ccc12 | 357 | 730 | 30 | –
Cc1cc(=O)oc2cc(OCCCCN3CCN(CC(=O)Nc4c5c(nc6ccccc46)CCCC5)CC3)ccc12 | 187 | 147 | 52.7 | –
O=C(CN1CCN(CCCCCOc2ccc3c(-c4ccccc4)cc(=O)oc3c2)CC1)Nc1c2c(nc3ccccc13)CCCC2 | 1580 | 1270 | 29.5 | –
Cc1cc(=O)oc2cc(OCCCCCN3CCN(CC(=O)Nc4c5c(nc6ccccc46)CCCC5)CC3)ccc12 | 333 | 164 | 59.8 | –
O=c1cc(-c2ccccc2)c2ccc(O)cc2o1 | 258000 | > 500000 | 27.1 | –
O=C(CN1CCN(CCCCCCOc2ccc3ccc(=O)oc3c2)CC1)Nc1c2c(nc3ccccc13)CCCC2 | 646 | 210 | 57.1 | –
